Legend:
human 5-HT1A receptor = biological target: T1, human 5-HT1A receptor (Homo sapiens, UniProt P08908); assay: Affinity measurement of the compounds to human 5-HT1A receptor (in vitro), [3H]8-OH-DPAT binding; conditions: test compound 100 nmols/L; [3H]8-OH-DPAT 0.25 nmols/L; CHO cell membrane expressing human 5-HT1A receptor; read-out: Percent Inhibition (%) on Each Receptor's Binding at 10^−7M, 5-HT1A
T1 construct: purchased Packard Bioscience; host or cells: CHO cells (membrane preparation)
T1 sequence (P08908 1-422): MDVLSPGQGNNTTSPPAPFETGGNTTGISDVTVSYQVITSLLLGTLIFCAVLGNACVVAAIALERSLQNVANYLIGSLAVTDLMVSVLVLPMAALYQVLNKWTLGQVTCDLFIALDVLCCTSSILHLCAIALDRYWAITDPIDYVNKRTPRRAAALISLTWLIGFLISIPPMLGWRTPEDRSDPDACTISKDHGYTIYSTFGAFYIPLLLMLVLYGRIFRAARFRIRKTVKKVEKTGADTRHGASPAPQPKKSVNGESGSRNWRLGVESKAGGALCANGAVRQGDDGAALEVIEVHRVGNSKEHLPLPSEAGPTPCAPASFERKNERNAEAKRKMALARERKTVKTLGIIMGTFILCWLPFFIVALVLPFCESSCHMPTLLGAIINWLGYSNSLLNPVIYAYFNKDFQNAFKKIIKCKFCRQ
How it was run: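 Membranes from CHO cells expressing human 5-HT1A were incubated 60 min at 27 °C with 0.25 nmol/L [3H]8-OH-DPAT and compound in Tris/MgSO4/EDTA/ascorbate buffer, pH 7.4. Bound radioactivity was collected on PEI-soaked GF/C filters and counted; percent inhibition was corrected for non-specific binding defined with 10 μmol/L 8-OH-DPAT.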

5-HT3 receptor = biological target: T2, 5-HT3 receptor (Rattus norvegicus, UniProt P35563); assay: Measurement of 5-HT3 receptor antagonistic action on rats (in vivo): inhibition of serotonin-induced bradycardia (BJ reflex); conditions: anesthetized SD male rats, serotonin 300 μg/kg 10 minutes later
T2 construct: from tissue; host or cells: whole animal (SD male rats), serotonin-induced bradycardia
T2 sequence (P35563 24-483): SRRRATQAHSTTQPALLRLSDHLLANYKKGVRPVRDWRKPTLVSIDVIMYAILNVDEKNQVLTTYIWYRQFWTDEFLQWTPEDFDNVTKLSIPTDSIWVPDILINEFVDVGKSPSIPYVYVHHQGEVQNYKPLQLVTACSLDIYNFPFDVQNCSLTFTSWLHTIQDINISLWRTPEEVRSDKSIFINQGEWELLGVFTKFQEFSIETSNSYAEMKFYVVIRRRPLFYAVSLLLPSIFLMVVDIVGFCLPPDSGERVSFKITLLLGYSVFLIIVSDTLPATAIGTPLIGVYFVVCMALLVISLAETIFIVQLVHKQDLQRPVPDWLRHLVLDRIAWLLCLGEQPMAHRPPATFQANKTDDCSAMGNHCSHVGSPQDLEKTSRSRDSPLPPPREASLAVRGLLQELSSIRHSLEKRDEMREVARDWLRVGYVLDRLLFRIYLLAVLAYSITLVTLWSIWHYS
Experimental: (4) Measurement of 5-HT3 Receptor Antagonistic Action on Rats (in Vivo)
SD male rats (weighing 270-410 g) were anesthetized by peritoneal administration of 1.25 g/kg of urethane (as dissolved in distilled water), and then catheters for measuring blood pressure and heart rate were inserted into their left carotid artery and a catheter for administration of test compound was inserted into their […]. After their blood pressure and heart rate were stabilized, 300 μg/kg of 5-hydroxytryptamine creatinine sulfate (serotonin) was rapidly intravenously administered and thereby induced transient bradycardiac reaction (BC 1) was observed. When the blood pressure and heart rate were re-stabilized after the serotonic administration, the test compounds were intravenously administered to the rats. Ten minutes thereafter, 300 μg/kg of serotonin was once again rapidly intravenously administered and thereby induced transient bradycardiac reaction (BC 2) was observed. Percent inhibition of bradycardia manifestation of each test compound, i.e., BJ reflex inhibition, can be calculated according to the following expression: […]

Row | Compound | inhibition at 0.1 µM (human 5-HT1A receptor) | other results
1 | Clc1ccc2ccnc(N3CCNCC3)c2c1 [Production Example 49, 7-chloro-1-piperazin-1-ylisoquinoline] | 88.7% | BC Inhibition (%) (5-HT3 receptor; dose 1.0 mg/kg intravenous): 96.8%
2 | c1cc2ccsc2c(N2CCN3CCC[C@@H]3C2)n1 [Production Example 108, 7-((8aR)-octahydropyrrolo[1,2-a]pyrazin-2-yl)thieno[2,3-c]pyridine] | 90.6% | –
3 | c1cc2sccc2c(N2CCN3CCC[C@H]3C2)n1 [Production Example 104, 4-((8aS)-octahydropyrrolo[1,2-a]pyrazin-2-yl)thieno[3,2-c]pyridine] | 85.5% | BC Inhibition (%) (5-HT3 receptor; dose 10.0 mg/kg intravenous): 46.1%
4 | COc1ccc2ccnc(N3CCN4CCC[C@H]4C3)c2c1 [Production Example 72, 1-((8aS)-octahydropyrrolo[1,2-a]pyrazin-2-yl)-7-methoxyisoquinoline] | 96.7% | BC Inhibition (%) (5-HT3 receptor; dose 0.3 mg/kg intravenous): 72.5%
5 | c1cc2ccsc2c(N2CCN3CCC[C@H]3C2)n1 [Production Example 103, 7-((8aS)-octahydropyrrolo[1,2-a]pyrazin-2-yl)thieno[2,3-c]pyridine] | 91.4% | BC Inhibition (%) (5-HT3 receptor; dose 3.0 mg/kg intravenous): 57.6%
6 | Nn1c(CCCCN2CCN(c3ccc4ccccc4n3)CC2)nc2ccccc2c1=O [Example 4-3, 3-amino-2-[4-(4-quinolin-2-ylpiperazin-1-yl)butyl]-3H-quinazolin-4-one] | 98.2% | BC Inhibition (%) (5-HT3 receptor; dose 1.0 mg/kg intravenous): 90.1%
7 | Cc1cc(N2CCN(CCCCc3nc4c(c(=O)n3C)CCCC4)CC2)nc2ccccc12 [Example 7-6, 3-methyl-2-[4-[4-(4-methylquinolin-2-yl)piperazin-1-yl]butyl]-5,6,7,8-tetrahydro-3H-quinazolin-4-one] | 97.4% | BC Inhibition (%) (5-HT3 receptor; dose 0.01 mg/kg intravenous): 58.5%
8 | Nn1c(CCCCN2CCN(c3ccc4ccccc4n3)CC2)nc2cccc(Cl)c2c1=O [Example 4-25, 3-amino-5-chloro-2-[4-(4-quinolin-2-ylpiperazin-1-yl)butyl]-3H-quinazolin-4-one] | 99.4% | BC Inhibition (%) (5-HT3 receptor; dose 0.1 mg/kg intravenous): 49.1%
9 | Cc1ccc2ccnc(N3CCN(C)CC3)c2c1 [Production Example 47, 7-methyl-1-(4-methylpiperazin-1-yl)isoquinoline] | 90.6% | BC Inhibition (%) (5-HT3 receptor; dose 1.0 mg/kg intravenous): 89.9%
10 | Cc1cc2c(N3CCN4CCC[C@H]4C3)nccc2s1 [Production Example 107, 4-((8aS)-octahydropyrrolo[1,2-a]pyrazin-2-yl)-2-methylthieno[3,2-c]-pyridine] | 98.5% | –
11 | CN1CCN(c2nccc3ccsc23)CC1 [Production Example 6, 7-(4-methylpiperazin-1-yl)thieno[2,3-c]pyridine] | 90.1% | –
12 | CCn1c(CCCCN2CCN(c3ccc4ccccc4n3)CC2)nc2c(c1=O)CCCC2 [Example 7-2, 3-2-[4-(4-quinolin-2-ylpiperazin-1-yl)butyl]-5,6,7,8-tetrahydro-3H-quinazolin-4-one] | 93.3% | –
13 | Nn1c(CCCCN2CCN(c3ccc4ccccc4n3)CC2)nc2ccsc2c1=O [Example 4-18, 3-amino-2-[4-(4-quinolin-2-ylpiperazin-1-yl)butyl]-3H-thieno[3,2-d]-pyrimidin-4-one] | 98% | BC Inhibition (%) (5-HT3 receptor; dose 0.1 mg/kg intravenous): 35.6%
14 | CCn1c(CCCCN2CCN(c3cc(C)c4ccccc4n3)CC2)nc2c(c1=O)CCCC2 [Example 7-7, 3-ethyl-2-[4-[4-(4-methylquinolin-2-yl)piperazin-1-yl]butyl]-5,6,7,8-tetrahydro-3H-quinazolin-4-one] | 96.9% | BC Inhibition (%) (5-HT3 receptor; dose 1.0 mg/kg intravenous): 85.4%
15 | Cn1c(CCCCN2CCN(c3ccc4ccccc4n3)CC2)nc2c(c1=O)CCCC2 [Example 7-1, 3-methyl-2-[4-(4-quinolin-2-ylpiperazin-1-yl)butyl]-5,6,7,8-tetrahydro-3H-quinazolin-4-one] | 97.5% | BC Inhibition (%) (5-HT3 receptor; dose 0.1 mg/kg intravenous): 90.3%
16 | Nn1c(CCCCN2CCN(c3ccc4ccccc4n3)CC2)nc2c(c1=O)CCCC2 [Example 4-1, 3-amino-2-[4-(4-quinolin-2-ylpiperazin-1-yl)butyl]-5,6,7,8-tetrahydro-3H-quinazolin-4-one] | 101% | BC Inhibition (%) (5-HT3 receptor; dose 0.1 mg/kg intravenous): 70.4%
17 | c1cc2ccoc2c(N2CCN3CCC[C@H]3C2)n1 [Production Example 102, 7-((8aS)-octahydropyrrolo[1,2-a]pyrazin-2-yl)furo[2,3-c]-pyridine] | 95.4% | BC Inhibition (%) (5-HT3 receptor; dose 3.0 mg/kg intravenous): 61.5%
18 | Clc1ccc2ccnc(N3CCN4CCC[C@H]4C3)c2c1 [Production Example 73, 7-chloro-1-((8aS)-octahydropyrrolo[1,2-a]pyrazin-2-yl)isoquinoline] | 98.3% | BC Inhibition (%) (5-HT3 receptor; dose 0.01 mg/kg intravenous): 52.2%
19 | COc1ccc2ccnc(N3CCNC(C)C3)c2c1 (stereo not drawn) [Production Example 38, 7-methoxy-1-(3-methylpiperazin-1-yl)isoquinoline] | 94.8% | BC Inhibition (%) (5-HT3 receptor; dose 1.0 mg/kg intravenous): 82.9%
20 | Cc1cc(N2CCN(CCCCc3nc4ccccc4c(=O)n3N)CC2)nc2ccccc12 [Example 4-4, 3-amino-2-[4-[4-(4-methylquinolin-2-yl)piperazin-1-yl]butyl]-3H-quinazolin-4-one] | 98.7% | BC Inhibition (%) (5-HT3 receptor; dose 0.1 mg/kg intravenous): 68.7%
21 | Cn1c(CCCCN2CCN(c3ccc4ccccc4n3)CC2)nc2ccccc2c1=O [Example 7-20, 3-methyl-2-[4-(4-quinolin-2-ylpiperazin-1-yl)butyl]-3H-quinazolin-4-one] | 101% | BC Inhibition (%) (5-HT3 receptor; dose 0.01 mg/kg intravenous): 64.7%
22 | CN1CCN(c2nccc3sccc23)CC1 [Production Example 8, 4-(4-methylpiperazin-1-yl)thieno[3,2-c]pyridine] | 78.3% | –

Source: US7799775B2, “Pyrimidine derivatives” (ASKA Pharmaceutical Co., Ltd., priority 2004, dated 2010)
